system: not listed separately; experiment: Oral glucose load in fasted rats: blood glucose AUC0-60 min and plasma insulin level (Pharmacological Test Example 2); assay type: in vivo, Wistar/ST male rats; conditions: first experiment, Example 1 3 mg/kg, Compound A 10 mg/kg, 10 minutes after administration, water group 1692 ± 583
Protocol: Wistar/ST male rats (Japan SLC, Inc.) were acclimated for 5 days or more (8-week-old when used) and then fasted overnight. […] From the tip end of each tail, blood was collected with time, and plasma was separated, and blood glucose and insulin levels were measured. The blood level was measured by using Glutest (Sanwa Kagaku Kenkyusho Co., Ltd.), and the plasma insulin level was measured by using a commercially available EAI kit (Shibayagi Co., Ltd.).
The blood glucose level was expressed in terms of area-under-curve (AUC0-60 min) (min·mg/dl) from 0 min. after sugar administration to 60 minutes, wherein the blood glucose level in a sample obtained by blood collection before the test was substituted for the blood glucose level at 0 min. The plasma insulin level was indicated by the plasma insulin level (pg/ml) 10 minutes after administration of the compound.

Row | SMILES | Insulin (plasma insulin level) [pg/mL]
1 | CCC(C)C(N)C(=O)N1CCSC1 (stereo not shown) [Compound A, Isoleucyl thiazolidide, reference compound] | 2994 ± 310

same assay, conditions: second experiment, Example 61 1 mg/kg, Compound A 10 mg/kg, 10 minutes after administration, water group 2008 ± 666

Row | SMILES | Insulin (plasma insulin level) [pg/mL]
2 | CCC(C)C(N)C(=O)N1CCSC1 (stereo not shown) [Compound A, Isoleucyl thiazolidide, reference compound] | 3670 ± 827

target: T1, DPP-IV (Homo sapiens, UniProt P27487); experiment: DPP-IV inhibition, Gly-Pro-MCA substrate, human plasma as enzyme source (Pharmacological Test Example 1); assay type: biochemical; conditions: 30 minutes at room temperature
T1 construct: from tissue; host or cells: human plasma (diluted 30-fold)
T1 sequence (P27487 39-766 limits assumed): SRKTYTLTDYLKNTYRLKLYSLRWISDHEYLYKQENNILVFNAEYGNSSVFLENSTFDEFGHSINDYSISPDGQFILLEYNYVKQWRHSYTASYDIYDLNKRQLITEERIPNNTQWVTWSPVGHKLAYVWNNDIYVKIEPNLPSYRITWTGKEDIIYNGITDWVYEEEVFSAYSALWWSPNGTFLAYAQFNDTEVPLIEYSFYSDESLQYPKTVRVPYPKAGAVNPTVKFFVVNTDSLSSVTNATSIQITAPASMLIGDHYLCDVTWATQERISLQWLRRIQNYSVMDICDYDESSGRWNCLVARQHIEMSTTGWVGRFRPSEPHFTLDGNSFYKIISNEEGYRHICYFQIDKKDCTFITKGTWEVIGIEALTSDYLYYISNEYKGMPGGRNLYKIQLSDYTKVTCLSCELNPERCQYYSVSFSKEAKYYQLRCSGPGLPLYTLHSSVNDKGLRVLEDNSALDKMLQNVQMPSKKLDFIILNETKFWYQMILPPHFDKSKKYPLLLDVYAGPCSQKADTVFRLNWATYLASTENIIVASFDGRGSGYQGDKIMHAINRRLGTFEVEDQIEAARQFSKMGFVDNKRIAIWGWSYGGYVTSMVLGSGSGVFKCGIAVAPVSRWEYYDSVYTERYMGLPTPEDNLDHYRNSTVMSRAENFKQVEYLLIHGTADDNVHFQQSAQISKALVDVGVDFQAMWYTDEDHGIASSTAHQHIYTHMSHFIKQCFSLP
Protocol: In screening of DPP-IV inhibitor, the following method using glycyl-proline-4-methylcumalyl-7-amide (Gly-Pro-MCA) as substrate was used.
There after, human plasma (20 μl) diluted30-fold with the measurement buffer was added to each well, stirred and reacted at room temperature for 30 minutes in the dark.
Inhibitory activity on DPP-IV=100×(1−(Fs−Fb)/F100−Fb) F100:fluorescence intensity obtained by reaction with plasma. Fb:fluorescence intensity of a blank where the reaction was carried out with the reaction terminating solution added. Fs:fluorescence intensity obtained by adding the test substance.

Row | SMILES | IC50 [nM]
3 | Cc1nn(C)c2ncc(C(=O)NCCNCC(=O)N3CCC[C@H]3C#N)cc12 [Compound 122] | 26
4 | N#C[C@@H]1CCCN1C(=O)CNCCNC(=O)c1cnc2n(c1=O)CCS2 [Compound 126] | 31
5 | COc1c(C(=O)NCC(C)(C)NCC(=O)N2CCC[C@H]2C#N)c(C)nc2cc(C)nn12 [Example 4] | 87
6 | COc1c(C(=O)NCC(C)(C)NCC(=O)N2CCC[C@H]2C#N)c(C)nc2cc(-c3ccccc3)nn12 [Example 10] | 85
7 | Cc1cc2nc(O)c(C(=O)NCC(C)(C)NCC(=O)N3CCC[C@H]3C#N)cn2n1 [Example 11] | 68
8 | CC(C)(CNC(=O)c1cnc2cc(CO)nn2c1)NCC(=O)N1CCC[C@H]1C#N [Example 13] | 24
9 | CC(C)(CNC(=O)c1ccc2[nH]ccc2c1)NCC(=O)N1CCC[C@H]1C#N [Example 16] | 33
10 | CC(C)(CNC(=O)c1cn(COCc2ccccc2)c2ccccc12)NCC(=O)N1CCC[C@H]1C#N [Example 33] | 71
11 | CC(C)(CNC(=O)c1ccc2c(ccn2COCc2ccccc2)c1)NCC(=O)N1CCC[C@H]1C#N [Example 36] | 45
12 | CC(C)(CNC(=O)c1ccc2c(ccn2CC(=O)OC(C)(C)C)c1)NCC(=O)N1CCC[C@H]1C#N [Example 43] | 16
13 | CC(=O)N1CCc2cc(C(=O)NCC(C)(C)NCC(=O)N3CCC[C@H]3C#N)ccc21 [Example 46] | 19
14 | CC(C)(CNC(=O)c1ccc2c(ccn2C(=O)c2ccccc2)c1)NCC(=O)N1CCC[C@H]1C#N [Example 48] | 31
15 | CC(C)(CNC(=O)c1ccc2c(c1)CCN2C(=O)C(F)(F)F)NCC(=O)N1CCC[C@H]1C#N [Example 50] | 20
16 | CC(C)(CNC(=O)c1ccc2ncsc2c1)NCC(=O)N1CCC[C@H]1C#N [Example 51] | 26
17 | COc1cc(C(=O)NCC(C)(C)NCC(=O)N2CCC[C@H]2C#N)cc2sc(C(F)(F)F)nc12 [Example 53] | 48
18 | CC(C)(CNC(=O)c1ccc2[nH]c(=O)sc2c1)NCC(=O)N1CCC[C@H]1C#N [Example 55] | 24
19 | Cc1nc2ccc(C(=O)NCC(C)(C)NCC(=O)N3CCC[C@H]3C#N)cc2o1 [Example 57] | 35
20 | CC(C)(CNC(=O)C1Cc2ccccc2C1)NCC(=O)N1CCC[C@H]1C#N [Example 59] | 50
21 | CC(C)(CC(=O)N1Cc2ccc(F)cc2C1)NCC(=O)N1CCC[C@H]1C#N [Example 63] | 18
22 | CC(C)(CC(=O)N1Cc2ccc(Br)cc2C1)NCC(=O)N1CCC[C@H]1C#N [Example 64] | 24
23 | CC(C)(CC(=O)N1Cc2ccc(Cl)cc2C1)NCC(=O)N1CCC[C@H]1C#N [Example 65] | 11

Row | SMILES | IC50 [nM]
24 | CC(C)(CC(=O)N1Cc2ccc(C(C)(C)C)cc2C1)NCC(=O)N1CCC[C@H]1C#N [Example 66] | 50
25 | CC(C)(CC(=O)N1Cc2cccc(F)c2C1)NCC(=O)N1CCC[C@H]1C#N [Example 67] | 7
26 | Cc1cccc2c1CN(C(=O)CC(C)(C)NCC(=O)N1CCC[C@H]1C#N)C2 [Example 68] | 16
27 | CC(C)(CC(=O)N1Cc2c(Cl)ccc(Cl)c2C1)NCC(=O)N1CCC[C@H]1C#N [Example 69] | 21
28 | CC(C)(CC(=O)N1Cc2cccc(O)c2C1)NCC(=O)N1CCC[C@H]1C#N [Example 70] | 32
29 | CC(C)(CC(=O)N1Cc2ccc(CO)cc2C1)NCC(=O)N1CCC[C@H]1C#N [Example 71] | 2
30 | CC(C)(CC(=O)N1Cc2ccc(C(F)(F)F)cc2C1)NCC(=O)N1CCC[C@H]1C#N [Example 72] | 39
31 | CC(C)(CC(=O)N1Cc2c(Cl)c(Cl)c(Cl)c(Cl)c2C1)NCC(=O)N1CCC[C@H]1C#N [Example 73] | 94
32 | CC(C)(CC(=O)N1Cc2cc(Cl)c(Cl)cc2C1)NCC(=O)N1CCC[C@H]1C#N [Example 74] | 44
33 | Cc1cc(O)c2c(c1)CN(C(=O)CC(C)(C)NCC(=O)N1CCC[C@H]1C#N)C2 [Example 75] | 14
34 | COc1cc(C)cc2c1CN(C(=O)CC(C)(C)NCC(=O)N1CCC[C@H]1C#N)C2 [Example 76] | 22
35 | COc1cccc2c1CN(C(=O)CC(C)(C)NCC(=O)N1CCC[C@H]1C#N)C2 [Example 78] | 15
36 | CC(C)(CCC(=O)N1Cc2ccccc2C1)NCC(=O)N1CCC[C@H]1C#N [Example 82] | 17
37 | N#C[C@@H]1CCCN1C(=O)CNCCC(=O)N1Cc2ccccc2C1 [Example 89] | 25
38 | N#C[C@@H]1CCCN1C(=O)CNCCC(=O)N1CCc2ccccc21 [Example 91] | 82
39 | N#C[C@@H]1CCCN1C(=O)CNCCC(=O)Nc1nc2ccccc2s1 [Example 93] | 62
40 | N#C[C@@H]1CCCN1C(=O)CNCCNC(=O)c1ccc2ncsc2c1 [Example 95] | 13
41 | Cc1nc2ccc(C(=O)NCCNCC(=O)N3CCC[C@H]3C#N)cc2s1 [Example 101] | 66
42 | COc1cc2ncsc2cc1C(=O)NCCNCC(=O)N1CCC[C@H]1C#N [Example 102] | 90
43 | N#C[C@@H]1CCCN1C(=O)CNCCCCNC(=O)c1ccc2ncsc2c1 [Example 105] | 31

Second part, the compound after the results:

Row | IC50 [nM] | SMILES
44 | 28 | CC(C)(CNC(=O)c1c[nH]c2ccccc12)NCC(=O)N1CCC[C@H]1C#N [Example 15]
45 | 36 | Cn1cc(C(=O)NCC(C)(C)NCC(=O)N2CCC[C@H]2C#N)c2ccccc21 [Example 18]
46 | 50 | Cn1ccc2c(C(=O)NCC(C)(C)NCC(=O)N3CCC[C@H]3C#N)cccc21 [Example 19]
47 | 52 | Cn1ccc2cc(C(=O)NCC(C)(C)NCC(=O)N3CCC[C@H]3C#N)ccc21 [Example 20]
48 | 28 | Cn1ccc2ccc(C(=O)NCC(C)(C)NCC(=O)N3CCC[C@H]3C#N)cc21 [Example 21]
49 | 73 | Cn1ccc2cccc(C(=O)NCC(C)(C)NCC(=O)N3CCC[C@H]3C#N)c21 [Example 22]
50 | 82 | COc1cccc2c1cc(C(=O)NCC(C)(C)NCC(=O)N1CCC[C@H]1C#N)n2C [Example 23]
51 | 43 | COc1ccc2cc(C(=O)NCC(C)(C)NCC(=O)N3CCC[C@H]3C#N)n(C)c2c1 [Example 24]
52 | 48 | COc1cc(OC)c2cc(C(=O)NCC(C)(C)NCC(=O)N3CCC[C@H]3C#N)n(C)c2c1 [Example 25]
53 | 33 | COc1ccc2c(c1)c(C(=O)NCC(C)(C)NCC(=O)N1CCC[C@H]1C#N)c(C)n2C [Example 26]
54 | 21 | COc1ccc2c(c1)c(C(=O)NCC(C)(C)NCC(=O)N1CCC[C@H]1C#N)cn2C [Example 27]
55 | 78 | COc1cc(C(=O)NCC(C)(C)NCC(=O)N2CCC[C@H]2C#N)cc2ccn(C)c12 [Example 28]
56 | 89 | CC(C)Cn1cc(C(=O)NCC(C)(C)NCC(=O)N2CCC[C@H]2C#N)c2ccccc21 [Example 30]
57 | 49 | CC(C)(C)Cn1ccc2cc(C(=O)NCC(C)(C)NCC(=O)N3CCC[C@H]3C#N)ccc21 [Example 31]
58 | 48 | CC(C)Cn1ccc2cc(C(=O)NCC(C)(C)NCC(=O)N3CCC[C@H]3C#N)ccc21 [Example 32]
59 | 23 | COCn1cc(C(=O)NCC(C)(C)NCC(=O)N2CCC[C@H]2C#N)c2ccccc21 [Example 34]
60 | 37 | CC(=O)OCn1cc(C(=O)NCC(C)(C)NCC(=O)N2CCC[C@H]2C#N)c2ccccc21 [Example 35]
61 | 17 | CC(C)(CNC(=O)c1ccc2c(ccn2CO)c1)NCC(=O)N1CCC[C@H]1C#N [Example 37]
62 | 25 | COCn1ccc2cc(C(=O)NCC(C)(C)NCC(=O)N3CCC[C@H]3C#N)ccc21 [Example 38]
63 | 73 | COc1ccc2c(c1)c(C(=O)NCC(C)(C)NCC(=O)N1CCC[C@H]1C#N)cn2CC(C)(C)C [Example 39]
64 | 25 | CC(C)(C)Cn1cc(C(=O)NCC(C)(C)NCC(=O)N2CCC[C@H]2C#N)c2cc(O)ccc21 [Example 41]
65 | 27 | CC(C)(CNC(=O)c1cn(COC(=O)C(C)(C)C)c2ccccc12)NCC(=O)N1CCC[C@H]1C#N [Example 42]
66 | 37 | CN1CCc2cc(C(=O)NCC(C)(C)NCC(=O)N3CCC[C@H]3C#N)ccc21 [Example 44]
67 | 28 | CC(=O)n1cc(C(=O)NCC(C)(C)NCC(=O)N2CCC[C@H]2C#N)c2ccccc21 [Example 45]
68 | 24 | CC(=O)n1ccc2cc(C(=O)NCC(C)(C)NCC(=O)N3CCC[C@H]3C#N)ccc21 [Example 47]
69 | 20 | CC(C)(CNC(=O)c1ccc2c(ccn2C(=O)C(C)(C)C)c1)NCC(=O)N1CCC[C@H]1C#N [Example 49]
70 | 30 | Cn1cnc2cc(C(=O)NCC(C)(C)NCC(=O)N3CCC[C@H]3C#N)ccc21 [Example 56]

From patent US7345180B2, “Compound inhibiting dipeptidyl peptidase IV” (Sanwa Kagaku Kenkyusho Co., Ltd., priority 2003, dated 2008)
